Data reported in article PMC5259791 (Scientific Reports, 2017).

Assays:
PPARγ = target: T1, PPARγ (Homo sapiens, UniProt P37231); experiment: SPR on immobilized PPARγ; type: binding
T1 sequence (P37231 195-477 isoform P37231-2 limits assumed): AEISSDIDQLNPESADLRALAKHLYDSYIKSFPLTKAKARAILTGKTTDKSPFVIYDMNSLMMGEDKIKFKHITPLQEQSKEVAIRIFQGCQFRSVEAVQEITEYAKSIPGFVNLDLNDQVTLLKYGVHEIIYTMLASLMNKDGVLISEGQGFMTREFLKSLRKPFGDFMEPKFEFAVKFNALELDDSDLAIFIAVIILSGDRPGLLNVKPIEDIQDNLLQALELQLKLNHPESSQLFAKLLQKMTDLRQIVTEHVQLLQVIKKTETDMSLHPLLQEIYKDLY
Procedure: ; SPR analysis was also performed using the immobilized PPARγ LBD to evaluate if this protein portion was involved in the interaction with 1; […]. Conversely, no affinity of the diterpene towards Hsp60 was observed (Fig. 2c).
To assess the potential of 1 to act as a PPARγ modulator, we investigated the structural and functional aspects of its interaction with this nuclear receptor. To define the structural features required by 1 for an efficient interaction with PPARγ, as a first step, we performed SPR analyses using some diterpenes displaying structural relationship with 1 (compounds 2–9, Fig. 1). […]. SPR analyses were carried out on a BIACORE 3000 instrument (GE-Healthcare). PPARα, PPARγ, PPARδ and HSP60 surfaces were prepared on research−grade CM5 sensor chips (GE Healthcare). Proteins (100 μg/ml in 10 mM CH3COONa, pH 5.0) were immobilized using a standard amine−coupling protocol, to obtain densities of 3–5 kRU. Testing compounds were dissolved in 100% DMSO to obtain 4 mM solutions, and then diluted in PBS containing variable amounts of DMSO, achieving a final DMSO concentration of 0.1%. […]. SPR experiments and data elaboration were carried out as reported elsewhere.

PPARα = target: T2, PPARα (Homo sapiens, UniProt Q07869); experiment: SPR on immobilized PPARα; type: binding
T2 construct: purchased Tebu-Bio
T2 sequence (Q07869 1-468): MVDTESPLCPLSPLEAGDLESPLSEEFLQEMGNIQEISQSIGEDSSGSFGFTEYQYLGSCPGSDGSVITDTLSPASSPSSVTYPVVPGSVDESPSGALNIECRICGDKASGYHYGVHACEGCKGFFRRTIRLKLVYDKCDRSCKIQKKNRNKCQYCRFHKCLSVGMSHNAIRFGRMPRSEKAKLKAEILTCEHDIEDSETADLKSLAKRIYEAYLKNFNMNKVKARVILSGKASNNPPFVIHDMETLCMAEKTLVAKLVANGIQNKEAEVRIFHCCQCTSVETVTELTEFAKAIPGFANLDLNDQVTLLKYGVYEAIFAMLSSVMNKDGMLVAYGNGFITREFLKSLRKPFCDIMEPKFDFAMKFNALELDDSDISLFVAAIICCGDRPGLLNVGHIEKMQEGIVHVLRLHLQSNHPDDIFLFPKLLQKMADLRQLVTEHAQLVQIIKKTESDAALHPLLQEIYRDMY
Procedure: In order to evaluate if 1 acts as a selective ligand of PPARγ, SPR analyses were also carried out on immobilized PPARα and PPARδ, two proteins structurally and functionally related to PPARγ[23][24].
SPR analyses were carried out on a BIACORE 3000 instrument (GE-Healthcare). PPARα, PPARγ, PPARδ and HSP60 surfaces were prepared on research−grade CM5 sensor chips (GE Healthcare). Proteins (100 μg/ml in 10 mM CH3COONa, pH 5.0) were immobilized using a standard amine−coupling protocol, to obtain densities of 3–5 kRU. Testing compounds were dissolved in 100% DMSO to obtain 4 mM solutions, and then diluted in PBS containing variable amounts of DMSO, achieving a final DMSO concentration of 0.1%. For each molecule a five−point concentration series (25 nM, 65 nM, 150 nM, 400 nM, 1 μM) was set up. SPR experiments and data elaboration were carried out as reported elsewhere.

wild-type PPARγ1 = target: T3, wild-type PPARγ1 (Homo sapiens, UniProt P37231); experiment: PPRE-luciferase transactivation in HEK293T cells co-transfected with wild-type PPARγ1; type: cell-based; settings: wild type receptor, 24 h
T3 construct: expressed in transfected cells; host or cells: HEK293T (transient); vectors from Takuma Shiraki
T3 sequence (P37231 1-477 isoform P37231-2): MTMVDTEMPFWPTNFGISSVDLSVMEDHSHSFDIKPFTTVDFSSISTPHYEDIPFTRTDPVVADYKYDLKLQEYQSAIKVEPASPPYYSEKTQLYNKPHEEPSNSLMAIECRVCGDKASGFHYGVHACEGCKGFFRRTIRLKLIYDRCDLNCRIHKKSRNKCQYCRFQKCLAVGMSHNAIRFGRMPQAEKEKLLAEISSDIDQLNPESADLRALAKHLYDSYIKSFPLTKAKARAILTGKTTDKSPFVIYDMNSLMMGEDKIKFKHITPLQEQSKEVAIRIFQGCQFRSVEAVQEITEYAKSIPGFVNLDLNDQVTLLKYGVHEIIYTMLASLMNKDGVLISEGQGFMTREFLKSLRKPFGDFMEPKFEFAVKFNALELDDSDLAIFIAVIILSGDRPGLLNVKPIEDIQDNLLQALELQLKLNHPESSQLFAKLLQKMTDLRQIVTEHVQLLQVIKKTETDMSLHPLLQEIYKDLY
From the text: Luciferase activity is reported as fold-induction after normalization to β-galactosidase activity used as control for transfection efficiency. […] (b) Human HEK293T cells were co-transfected with the PPRE-luciferase reporter gene and the wild-type PPARγ1 or its mutant version (C285A). […] Luciferase activity is reported as fold-induction after normalization to β-galactosidase activity used as control for transfection efficiency.
To this goal we transiently transfected basal HEK293T cells with the PPRE-TK-luciferase-reporter plasmid along with the expression vector for the wild-type PPARγ1 or the mutant version carrying the C285A substitution.
HEK293 cells that stably express an exogenous Flag-tagged PPARγ from a transfected PCDNA-3 vector carrying a complete PPARγ cDNA were used for transfection experiments. The PPRE-Luc plasmid contains a luciferase reporter gene under the transcriptional control of three copies of the PPRE (Peroxisome Proliferator Response Element) derived from Acyl-CoA oxidase gene fused upstream to the herpes simplex thymidine kinase (TK) promoter, as described. The RSV-βGal plasmid, expressing β-galactosidase gene, driven by the strong Rous Sarcoma Virus (RSV) promoter/cassette was used as an internal control for transfection efficiency. Transient transfection assays were carried out as described in ref. [44]. […]

C=C1C(=O)C23CCC4C(C(=O)OC)CC(O)CC4(C)C2CCC1C3 (stereo not shown) [Compound 1, 15-ketoatractyligenin methyl ester] was tested, and the “dissociation of 1/PPARγ complex” value (PPARγ; SPR, compared with 1/PPARα complex) was “required longer times and was incomplete”, the Kd (PPARγ; SPR, immobilized PPARγ) was 25.8 ± 5.5 nM and the “interaction with PPARγ pre-incubated with 1” value (PPARγ; protein immobilized after 2 h incubation with 5-fold molar excess of 1) was “did not interact”. For the same compound, the “interaction with PPARα” value (PPARα) was “only a weak interaction”, the “time to complete dissociation of complex” value (PPARα; 1/PPARα complex) was “less than 50 s” and the Kd (PPARα; immobilized PPARα) was 1320 ± 80 nM. The “luciferase activity less than Rosiglitazone” value (wild-type PPARγ1) was 40%.
